We go through 2 compounds from patent publication US20110118218A1, “TREATING HYPERTENSION WITH 25-HYDROXYVITAMIN D3” (priority 2008, published 2011).

The conditions of series [1]: cited from earlier work.
Series [2] can be described thus: Human clinical trial: blood pressure after daily/weekly oral treatment for 4 months. In kind it is in vivo. Conditions: for Diastolic blood pressure (GLM least square mean) / Systolic blood pressure (GLM least square mean): healthy postmenopausal women, 20 μg per day or 140 μg per week oral, repeated measurement analysis over 13 visits adjusted for baseline blood pressure and time; for Effect on blood pressure (in words): mildly hypertensive subjects, none above 146/95 mmHg. From the text: Each group includes five subjects. They are followed for four months in Ziirich, Switzerland during the winter.
Equimolar quantities of both substances were investigated. […] As the maximum pre-existing baseline concentration of 25-hydroxyvitamin D3 will be 50 nmol/L, it is not anticipated that subjects will approach the range where disturbance in Ca^2+ homeostasis has been observed.
Each dosage was consumed orally at breakfast.
For blood pressure assessments a standard protocol was used (OMRON professional apparatus) to measure diastolic and systolic blood pressure in Week 1 on visit 2 (baseline) and the remaining 4 days of Week 1. The assessments continued at each visit of Weeks 2, 3, 5, 7, 9, 11, 13 and 15.
Treatment duration was 4 months.

Setting [3] is: 20 μg per day or 140 μg per week, 4 months, 13 visits, adjusted for baseline blood pressure and time.
[4] abbreviates: daily or weekly treatment, identical dosages.

For the compound `C=C1CC[C@H](O)C/C1=C/C=C1\CCC[C@]2(C)[C@@H]([C@H](C)CCCC(C)(C)O)CC[C@@H]12` [25-OH D3, 25-hydroxyvitamin D3], the “Blood concentration of 25-hydroxyvitamin D3 at which hypercalcemia may occur” value in series [1] (in vivo) is given as “greater than 375 nmol/L”. Also, in series [2] (setting [3]), the “Diastolic blood pressure, change vs. daily/weekly Vitamin D3” value is listed as −1.4 mmHg and the “Systolic blood pressure, change vs. daily/weekly Vitamin D3” value is given as −6.1 mmHg. In series [2] (setting [4]), the “Reduction of diastolic blood pressure versus Vitamin D3” value was found to be 1.4 mmHg and the “Reduction of systolic blood pressure versus Vitamin D3” value was 6.1 mmHg. For the same compound, in series [2] (4 months), the “Diastolic blood pressure (GLM least square mean)” value is 68.9 mmHg and the “Systolic blood pressure (GLM least square mean)” value was 111.1 mmHg. In addition, in series [2], the “Effect on blood pressure (in words)” value is listed as “very effective reduction of blood pressure”.

Take `C=C1CC[C@H](O)C/C1=C/C=C1\CCC[C@]2(C)[C@@H]([C@H](C)CCCC(C)C)CC[C@@H]12` [Vitamin D3, cholecalciferol]: the “Blood concentration of 25-hydroxyvitamin D3 resulting from ingestion as dietary supplement” value in series [1] (ingestion of vitamin D3 at the safe upper level (250 μg/day)) was “about 200 nmol/L”. Further, in series [2] (4 months), the “Diastolic blood pressure (GLM least square mean)” value is 70.3 mmHg and the “Systolic blood pressure (GLM least square mean)” value came to 117.2 mmHg. Besides, in series [2], the “Effect on blood pressure (in words)” value is given as “no effect”.
